The values below come from US20230116972A1, “CD38 MODULATORS AND METHODS OF USE THEREOF” (Cytokinetics, Inc., priority 2021, published 2023).

The target of one assay is T1, mouse CD38 (Mus musculus, UniProt P56528).
T1 sequence (P56528 1-304): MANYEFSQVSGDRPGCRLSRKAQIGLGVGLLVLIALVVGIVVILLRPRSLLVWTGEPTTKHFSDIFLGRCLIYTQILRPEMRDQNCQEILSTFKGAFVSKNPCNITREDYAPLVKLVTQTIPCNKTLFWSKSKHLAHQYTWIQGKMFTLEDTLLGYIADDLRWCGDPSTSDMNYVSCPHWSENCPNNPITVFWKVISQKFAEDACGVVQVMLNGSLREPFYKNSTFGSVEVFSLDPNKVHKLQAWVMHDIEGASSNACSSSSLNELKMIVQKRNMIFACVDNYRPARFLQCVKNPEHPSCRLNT
Description: mouse recombinant CD38 enzyme assay (hydrolysis of NAD+). Type of assay: biochemical. Conditions: read-out: mCD38 BioChem IC50. The procedure: (§1) Compounds described herein were assayed for their ability to inhibit the hydrolysis of NAD+ by the protein CD38. The human and mouse recombinant enzyme assays measure the inhibition of the enzyme activity by compounds using recombinant enzymes and substrates in a buffered cell-free system. The assay conditions closely mimic cellular environments. Dose responses were measured using an assay to detect the hydrolysis of NAD+. All experiments were performed in the 384-well format. […] Enzyme reactions were initiated with the addition of 10 μL of a solution containing NAD+ substrate. Subsequent detection of remaining NAD+ was determined by first converting NAD+ to NADH using alcohol dehydrogenase, then using the resulting NADH to reduce resazurine to the fluorescent product resorufin. […] Following an incubation of 60 min at ambient temperature, 10 μL of 120 mM ethanol+20 U/ml alcohol dehydrogenase+30 mM semicarbazide+0.03 mM CD38 inhibitor in 50 mM HEPES, pH 7.5, 0.2 mg/ml BSA, was added and incubated at ambient temperature for 15 min. Then 10 μl 0.32 mM NaOH was added to stop the ADH reaction (plates incubated at ambient temperature for 15 min), followed by 30 μL of 0.05 mM resazurine+1000 mU/ml Diaphorase in 200 mM Tris-HCl, pH 7.7 for 15 min at ambient temperature. The plates were read for fluorescence (Excitation/Emission=540 nm/590 nm) using an EnVision plate reader. […] Note that, in Table 4, the “Compound No” corresponds to the compound numbers in Table 1.

A further assay has as its target T2, human CD38 (Homo sapiens, UniProt P28907).
T2 sequence (P28907 1-300): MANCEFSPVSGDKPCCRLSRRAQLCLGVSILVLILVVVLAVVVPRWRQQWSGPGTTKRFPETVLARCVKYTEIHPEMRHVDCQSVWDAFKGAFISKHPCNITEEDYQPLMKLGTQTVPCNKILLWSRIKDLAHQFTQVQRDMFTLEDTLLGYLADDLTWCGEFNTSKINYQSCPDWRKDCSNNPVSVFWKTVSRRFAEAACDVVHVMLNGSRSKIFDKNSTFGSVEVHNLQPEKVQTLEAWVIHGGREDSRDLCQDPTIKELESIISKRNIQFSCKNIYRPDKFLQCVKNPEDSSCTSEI
Description: human recombinant CD38 enzyme assay (hydrolysis of NAD+). Type of assay: biochemical. Conditions: human recombinant CD38, 0.4 nM enzyme, 62.5 μM NAD+; read-out: hCD38 BioChem IC50. The procedure:
as §1

As usually defined, the IC50 is the concentration that gives 50% inhibition. Turning to `Cn1cncc1-c1ccnc(C(=O)Nc2ccc(OC3CCC(F)(F)CC3)nc2)n1` [Compound 330, N-(6-((4,4-difluorocyclohexyl)oxy)pyridin-3-yl)-4-(1-methyl-1H-imidazol-5-yl)pyrimidine-2-carboxamide], the IC50 on mouse CD38 turned out to be 9.8 nM; at human CD38, 5 nM.
For the compound `COCCO[C@H]1CC[C@H](NC(=O)c2nccc(-c3cncn3C)n2)C1` [Compound 344, N-((1S,3S)-3-(2-methoxyethoxy)cyclopentyl)-4-(1-methyl-1H-imidazol-5-yl)pyrimidine-2-carboxamide], the IC50 worked out at 46.9 nM on mouse CD38 and 417 nM at human CD38.
Consider `Cn1cncc1-c1nc(C(=O)Nc2ccc(C(C)(C)O)nc2)cc(C2CCOCC2)n1` [Compound 332, N-(6-(2-hydroxypropan-2-yl)pyridin-3-yl)-2-(1-methyl-1H-imidazol-5-yl)-6-(tetrahydro-2H-pyran-4-yl)pyrimidine-4-carboxamide], for which the IC50 on mouse CD38 worked out at 1.5 nM; at human CD38, 11 nM.
On to `Cn1cncc1-c1ccnc(C(=O)N[C@H]2CC[C@H](OC(F)(F)F)CC2)n1` [Compound 317, 4-(1-methyl-1H-imidazol-5-yl)-N-((1r,4r)-4-(trifluoromethoxy)cyclohexyl)pyrimidine-2-carboxamide], for which the IC50 worked out at 41.7 nM at mouse CD38 and 79.1 nM on human CD38.
Consider `CO[C@H]1CC[C@H](NC(=O)c2nc(-c3cncn3C)cnc2C)CC1` [Compound 298, N-((1r,4r)-4-methoxycyclohexyl)-3-methyl-6-(1-methyl-1H-imidazol-5-yl)pyrazine-2-carboxamide], for which the IC50 is 166 nM on mouse CD38 and 319 nM at human CD38.
Taken in the same sequence, the figures for `C[C@H]1CC[C@H](NC(=O)c2ccnc(-c3cncs3)n2)CC1` [Compound 112, N-((1r,4r)-4-methylcyclohexyl)-2-(thiazol-5-yl)pyrimidine-4-carboxamide] were 158 nM and 639 nM.
Taken in the same sequence, the figures for `CO[C@H]1CC[C@H](NC(=O)c2cc(C3CCC3)nc(-c3cncn3C)n2)CC1` [Compound 181, 6-Cyclobutyl-N-((1r,4r)-4-methoxycyclohexyl)-2-(1-methyl-1H-imidazol-5-yl)pyrimidine-4-carboxamide] were 2 nM and 14 nM.
For the compound `CO[C@H]1CC[C@H](NC(=O)c2nc(-c3cncn3C)ncc2C)CC1` [Compound 328, N-((1r,4r)-4-methoxycyclohexyl)-5-methyl-2-(1-methyl-1H-imidazol-5-yl)pyrimidine-4-carboxamide], the values for the IC50 at mouse CD38 and on human CD38 were 11.5 nM and 41.4 nM, respectively.
The like results for `Cn1cncc1-c1nc(C(=O)N[C@H]2CC[C@H](OC(F)(F)F)CC2)cc(C2CCOCC2)n1` [Compound 334, 2-(1-methyl-1H-imidazol-5-yl)-6-(tetrahydro-2H-pyran-4-yl)-N-((1r,4r)-4-(trifluoromethoxy)cyclohexyl)pyrimidine-4-carboxamide] were, in that order, 5.4 nM and 12.4 nM.
The like results for `Cn1cncc1-c1ccnc(C(=O)NC2CCC(C)(C)OC2)n1` (centres unmarked) [Compound 278, N-(6,6-dimethyltetrahydro-2H-pyran-3-yl)-4-(1-methyl-1H-imidazol-5-yl)pyrimidine-2-carboxamide] were, in that order, 67.9 nM and 490 nM.
On to `COCCO[C@H]1C[C@H](NC(=O)c2nccc(-n3ccnc3)n2)C1` [Compound 223, 4-(1H-imidazol-1-yl)-N-((1r,3r)-3-(2-methoxyethoxy)cyclobutyl)pyrimidine-2-carboxamide], for which the IC50 worked out at 459 nM on mouse CD38 and 1630 nM on human CD38.
Taken in the same sequence, the figures for `Cc1cnc(-c2cncn2C)nc1C(=O)N[C@H]1CC[C@H](OC(F)F)CC1` [Compound 335, N-((1r,4r)-4-(difluoromethoxy)cyclohexyl)-5-methyl-2-(1-methyl-1H-imidazol-5-yl)pyrimidine-4-carboxamide] were 13.5 nM and 28.7 nM.
`CC(C)O[C@H]1C[C@H](NC(=O)c2nccc(-c3cncn3C)n2)C1` [Compound 320, N-((1r,3r)-3-isopropoxycyclobutyl)-4-(1-methyl-1H-imidazol-5-yl)pyrimidine-2-carboxamide]: the IC50 on mouse CD38 was 218 nM; on human CD38 it was 949 nM.
The like results for `CO[C@H]1CC[C@H](NC(=O)c2cc(C)cc(-c3cncs3)n2)CC1` [Compound 133, N-(4-methoxycyclohexyl)-4-methyl-6-(thiazol-5-yl)picolinamide] were, in that order, 135 nM and 1730 nM.
`CO[C@H]1CC[C@H](NC(=O)c2cc(C3CCC3)nc(-n3ccnc3)n2)CC1` [Compound 184, 6-cyclobutyl-2-(1H-imidazol-1-yl)-N-((1r,4r)-4-methoxycyclohexyl)pyrimidine-4-carboxamide]: the results for the IC50 on mouse CD38 and at human CD38 were 16 nM and 56 nM, respectively.
Turning to `COC[C@H]1CC[C@H](NC(=O)c2ccnc(-c3cncs3)n2)CC1` [Compound 139, N-((1r,4r)-4-(methoxymethyl)cyclohexyl)-2-(thiazol-5-yl)pyrimidine-4-carboxamide], the results for the IC50 on mouse CD38 and at human CD38 were 232 nM and 1010 nM, respectively.
Taken in the same sequence, the figures for `COCCO[C@@H]1CC[C@@H](NC(=O)c2cc(C3CCOCC3)nc(-c3cncn3C)n2)C1` [Compound 352, N-((1R,3R)-3-(2-methoxyethoxy)cyclopentyl)-2-(1-methyl-1H-imidazol-5-yl)-6-(tetrahydro-2H-pyran-4-yl)pyrimidine-4-carboxamide] were 20.6 nM and 25.4 nM.
The like results for `CO[C@H]1CC[C@H](NC(=O)c2cc(C3CC3)nc(-c3cncs3)n2)CC1` [Compound 108, 6-Cyclopropyl-N-((1r,4r)-4-methoxycyclohexyl)-2-(thiazol-5-yl)pyrimidine-4-carboxamide] were, in that order, 33 nM and 711 nM.
For `CO[C@H]1CC[C@H](NC(=O)c2cc(C(C)C)nc(-n3ccnc3)n2)CC1` [Compound 167, 2-(1H-imidazol-1-yl)-6-isopropyl-N-((1r,4r)-4-methoxycyclohexyl)pyrimidine-4-carboxamide], the values for the IC50 on mouse CD38 and at human CD38 were 46 nM and 214 nM, respectively.
The like results for `O=C(NC1CN(c2ccccc2)C1)c1nccc(-n2ccnc2)n1` [Compound 262, 4-(1H-imidazol-1-yl)-N-(1-phenylazetidin-3-yl)pyrimidine-2-carboxamide] were, in that order, 232 nM and 1840 nM.
Taken in the same sequence, the figures for `Cn1cncc1-c1nc(C(=O)Nc2ccc(C(F)(F)F)nc2)cc(C(C)(C)O)n1` [Compound 176, 6-(2-hydroxypropan-2-yl)-2-(1-methyl-1H-imidazol-5-yl)-N-(6-(trifluoromethyl)pyridin-3-yl)pyrimidine-4-carboxamide] were 19 nM and 28 nM.
Taken in the same sequence, the figures for `Cn1cncc1-c1ccnc(C(=O)N[C@H]2C[C@@H](c3ccnc(C(F)(F)F)c3)C2)n1` [Compound 266, 4-(1-methyl-1H-imidazol-5-yl)-N-((1s,3s)-3-(2-(trifluoromethyl)pyridin-4-yl)cyclobutyl)pyrimidine-2-carboxamide] were 327 nM and 708 nM.
Regarding `CO[C@H]1CC[C@H](NC(=O)c2ccnc(-c3cncs3)n2)CC1` [Compound 113, N-((1r,4r)-4-methoxycyclohexyl)-2-(thiazol-5-yl)pyrimidine-4-carboxamide], the IC50 at mouse CD38 worked out at 166 nM; at human CD38 it was 569 nM.
The like results for `O=C(NC1CCS(=O)(=O)CC1)c1cc(C2CC2)nc(-c2cncs2)n1` [Compound 142, 6-cyclopropyl-N-(1,1-dioxidotetrahydro-2H-thiopyran-4-yl)-2-(thiazol-5-yl)pyrimidine-4-carboxamide] were, in that order, 161 nM and 1720 nM.
Taken in the same sequence, the figures for `COCCO[C@@H]1CC[C@@H](NC(=O)c2nccc(-c3cncn3C)n2)C1` [Compound 351, N-((1R,3R)-3-(2-methoxyethoxy)cyclopentyl)-4-(1-methyl-1H-imidazol-5-yl)pyrimidine-2-carboxamide] were 267 nM and 676 nM.
